Laboratory results as given in patent US6649609B2, “Benzimidazole derivatives and pharmaceutical compositions comprising these compounds” (Neurosearch A/S, priority 1999, dated 2003).
Where a name gives a salt, the structure may show the parent alone.

Key:
[1] = target: benzodiazepine receptor (GABAA receptor complex), cerebral cortex membranes; experiment: In vitro inhibition of 3H-flunitrazepam (3H-FNM) binding; conditions: inhibition of specific 3H-FNM (1 nM) binding, rat cerebral cortex membranes
Protocol: The GABA recognition site and the benzodiazepine modulatory unit can selectively be labelled with ^3H-muscimol and ^3H-flunitrazepam, respectively.
13A: In vitro inhibition of ^3H-flunitrazepam (^3H-FNM) binding
Preparations are performed at 0-4° C. unless otherwise indicated. Cerebral cortex from male Wistar rats (150-200 g) is homogenised for 5-10 sec in 20 ml Tris-HCl (30 mM, pH 7.4) using an Ultra-Turrax homogeniser. The suspension is centrifuged at 27,000× g for 15 min and the pellet is washed three times with buffer (centrifuged at 27,000× g for 10 min). The washed pellet is homogenized in 20 ml of buffer and incubated on a water bath (37° C.) for 30 min to remove endogenous GABA and then centrifuged for 10 min at 27,000× g. The pellet is then homogenized in buffer and centrifuged for 10 min at 27,000× g. The final pellet is resuspended in 30 ml buffer and the preparation is frozen and stored at −20° C.
The membrane preparation is thawed and centrifuged at 2° C. for 10 min at 27,000× g. The pellet is washed twice with 20 ml 50 mM Tris-citrate, pH 7.1 using an Ultra-Turrax homogeniser and centrifuged for 10 min at 27,000× g. The final pellet is resuspended in 50 mM Tris-citrate, pH 7.1 (500 ml buffer per g of original tissue), and then used for binding assays. Aliquots of 0.5 ml tissue are added to 25 μl of test solution and 25 μl of ^3H-FNM (1 nM, final concentration), mixed and incubated for 40 min at 2° C., Non-specific binding is determined using Clonazepam (1 μM, final concentration). After incubation the samples are added 5 ml of ice-cold buffer and poured directly onto Whatman GFIC glass fibre filters under suction and immediately washed with 5 ml ice-cold buffer. The amount of radioactivity on the filters is determined by conventional liquid scintillation counting. Specific binding is total binding minus non-specific binding.
The test value will be given as IC50 (the concentration (μM) of the test substance which inhibits the specific binding of ^3H-FNM by 50%). [formula]
Co is specific binding in control assays, and
Cx is the specific binding in the test assay.
(The calculations assume normal mass-action kinetics).

[2] = tested on: clonic convulsions induced by pentylenetetrazol (PTZ); experiment: PTZ clonic convulsions; format: in vivo; conditions: female NMRI mice; for ED100: i.v., dose increasing the PTZ threshold to 100 mg PTZ/kg (linear regression); for ptz threshold at 30 mg/kg: test substance 30 mg/kg i.v., PTZ infused after 5 min, vehicle threshold 37-39 mg PTZ/kg
Protocol: The purpose of this test is to show antagonism of clonic convulsions induced by pentylenetetrazol (PTZ). PTZ induces clonic convulsions in mice after i.v. infusion. Antagonism of PTZ-induced convulsions is a measure for the agonistic character of ligands for the benzodiazepine recognition site.
Female NMRI mice (Bomholdtgaard, Ry), 20 g, 6 mice in each group are administered i.v. with vehicle or test substance. After five minutes the PTZ-solution is infused intravenously at a speed of 0.7 ml/minute through a cannula placed in the tail vein. The time from initiation of the infusion to appearance of clonic convulsions is recorded.
The dose of PTZ required for inducing convulsion in each mouse is calculated as PTZ/kg body weight. Means ±sd for each experimental group of 6 mice is calculated. ED100 is calculated by linear regression expressing the dose increasing the PTZ threshold to 100 mg PTZ/kg.
The threshold of vehicle treated controls is in the range of 37-39 mg PTZ/kg. As a control in each series of experiments PTZ is infused into 6 vehicle treated mice.

[3] = tested on: GABAA receptor-ion channel complex (forebrain); experiment: In vivo inhibition of 3H-FNM binding; parameters: species or system mouse; conditions: female NMRI mice, test substance i.v., inhibition of specific [3H]FNM binding in forebrain
Protocol: 13B: In vivo inhibition of ^3H-FNM binding
[^3H]FNM can also be used for in vivo receptor labelling studies in mouse. Accumulation of [^3H]FNM binding will occur all over the brain as GABAA receptors are widely distributed.
All test substances used are solutions prepared in 10% TWEEN 80. Groups of three female NMRI mice (25 g) are injected i.v. via the tail vein with 5.0 μCi of [3H]FNM in 0.2 ml saline. Fifteen min after injection with [^3H]FNM the test substance is administered i.v. Twenty min after injection with [^3H]FNM, mice are killed by decapitation, the forebrains rapidly excised and homogenized in 12 ml of ice-cold 50 mM Tris-citrate, pH 7.1 using an Ultra-Turrax homogenizer. Three aliquots of 1 ml are immediately filtered through GF/C glass fibre filters and washed with 2×5 ml of ice-cold buffer. The amounts of radioactivity on the filters and in 200 μl of the homogenate are determined by conventional scintillation counting. Groups of untreated mice serves as controls. To determine non-specific binding groups of mice are injected with Clonazepam (25 mg/kg) i.p. 10 min before [3H]FNM injection. Specific binding is the amount of binding in controls minus the amount of binding in Clonazepam treated mice.
The ED50 value is determined from dose response curves. […] [formula]
where Co is specific binding in controls and Cx is the specific binding in mice treated with test substance.

melting point | Structure (SMILES) | further results
105 to 110 °C | COCCOC(=O)c1ccc2c(c1)ncn2-c1cccc(N2CCN(CC(=O)O)CC2)c1 | 
121 to 122 °C | CSCCOC(=O)c1ccc2c(c1)ncn2-c1cccc(N2CCN(C)CC2)c1 | 
47 °C (dec.) | CN(C)CCOC(=O)c1ccc2c(c1)ncn2-c1cccc(N2CCN(CC(=O)O)CC2)c1 | 
160 to 162 °C | COC(=O)c1ccc2c(c1)ncn2-c1cccc(N2CCN(CC#N)CC2)c1 | 
91 to 93 °C | COCCOC(=O)c1ccc2c(c1)ncn2-c1cccc(N2CCN(CC#N)CC2)c1 | 
131 to 132 °C | CC(C)(C)OC(=O)CN1CCN(c2cccc(-n3cnc4cc(-c5ccoc5)ccc43)c2)CC1 | 
90 to 94 °C | CCOC(=O)CN1C(C)CN(c2cccc(-n3cnc4cc(C(=O)OCCOC)ccc43)c2)CC1C (centres unmarked) (as salt: HCl) | 
132 to 134 °C | COCCOC(=O)c1ccc2c(c1)ncn2-c1cccc(-n2cnc(C(=O)OC)c2)c1 (as salt: HCl) | 
182 to 192 °C | O=C(OCCO)c1ccc2c(c1)ncn2-c1cccc(N2CCN(CCO)CC2)c1 (as salt: HCl) | 
202 to 208 °C | CCN1C(C)CN(c2cccc(-n3cnc4cc(C(=O)OCCOC)ccc43)c2)CC1C (centres unmarked) (as salt: HCl) | 
179 to 180 °C | CCN1CC=C(c2cccc(-n3cnc4cc(C(=O)OCCOC)ccc43)c2)CC1 (as salt: HCl) | 
123 to 125 °C | COCCOC(=O)c1ccc2c(c1)ncn2-c1cccc(C2CCN(C)CC2)c1 (as salt: HCl) | 
139 to 140 °C | COCCOC(=O)c1ccc2c(c1)ncn2-c1cccc(C2CCN(C(C)=O)CC2)c1 (as salt: HCl) | 
179 to 202 °C | COC(=O)c1ccc2c(c1)ncn2-c1cccc(N2CCNCC2)c1 (as salt: HCl) | 
218 to 224 °C | COCCOC(=O)c1ccc2c(c1)ncn2-c1cccc(N2CCN(CC(=O)OC(C)(C)C)CC2)c1 (as salt: HCl) | 
191 to 205 °C | COCCOC(=O)c1ccc2c(c1)ncn2-c1cccc(N2CCNCC2)c1 (as salt: HCl) | 
155 to 159 °C | COCCOC(=O)c1ccc2c(c1)ncn2-c1cccc(N2CCN(CC(=O)OC(C)C)CC2)c1 (as salt: HCl) | 
210 to 220 °C | COC(=O)c1ccc2c(c1)ncn2-c1cccc(N2CCN(CC(=O)O)CC2)c1 (as salt: HCl) | 
185 to 186 °C | COCCOC(=O)c1ccc2c(c1)ncn2-c1cccc(N2CCN(Cc3ccc(Cl)s3)CC2)c1 (as salt: HCl) | 

melting point | Structure (SMILES) | further results
128 to 139 °C | CN1CCN(c2cccc(-n3cnc4cc(C(=O)OCCO)ccc43)c2)CC1 (as salt: HCl) | 
150 to 155 °C | COC(=O)CN1CCN(c2cccc(-n3cnc4cc(C(=O)OCCO)ccc43)c2)CC1 (as salt: HCl) | 
103 to 125 °C | CCOC(=O)CN1CCN(c2cccc(-n3cnc4cc(C(=O)OCCO)ccc43)c2)CC1 (as salt: HCl) | 
202 to 204 °C | CCN(CC)C(=O)CN1CCN(c2cccc(-n3cnc4cc(C(=O)OCCOC)ccc43)c2)CC1 (as salt: HCl) | 
172 to 177 °C | COCCOC(=O)c1ccc2c(c1)ncn2-c1cccc(N2CCN(Cc3ccccc3)CC2)c1 (as salt: HCl) | 
161 to 164 °C | COCCOC(=O)c1ccc2c(c1)ncn2-c1cccc(N2CCN(CC(=O)OC)CC2)c1 (as salt: HCl) | 
211 to 212 °C | COCCOC(=O)c1ccc2c(c1)ncn2-c1cccc(N2CCN(CC(N)=O)CC2)c1 (as salt: HCl) | 
268 to 270 °C | NC(=O)CN1CCN(c2cccc(-n3cnc4cc(C(=O)OCCO)ccc43)c2)CC1 (as salt: HCl) | 
153 to 163 °C | COC(=O)c1ccc2c(c1)ncn2-c1cccc(N2CCN(Cc3ccccc3)CC2)c1 (as salt: HCl) | 
149 to 154 °C | CCN(CC)C(=O)CN1CCN(c2cccc(-n3cnc4cc(C(=O)OCCO)ccc43)c2)CC1 (as salt: HCl) | 
139 to 141 °C | COCCOC(=O)c1ccc2c(c1)ncn2-c1cccc(N2CCN(CCOCc3ccccc3)CC2)c1 (as salt: HCl) | 
196 to 198 °C | COCCOC(=O)c1ccc2c(c1)ncn2-c1cccc(N2CCN(Cc3nnnn3C)CC2)c1 (as salt: HCl) | 
166 to 168 °C | CCN1CCN(c2cccc(-n3cnc4cc(C(=O)OCCOC)ccc43)c2)CC1 (as salt: HCl) | 
248 to 250 °C | CCOC(=O)N1CCN(Cc2cccc(-n3cnc4cc(-c5ccoc5)ccc43)c2)CC1 (as salt: HCl) | 
198 to 200 °C | CN1CCCC1COC(=O)c1cccc(-n2cnc3cc(-c4ccoc4)ccc32)c1 (centres unmarked) (as salt: HCl) | 
136 to 137 °C | COCCOC(=O)c1ccc2c(c1)ncn2-c1cccc(N2CCN(C)CC2)c1 (as salt: maleate) | 
 | COC(=O)c1ccc2c(c1)ncn2-c1cccc(Cn2ccnc2)c1 [Compound 1l, Methyl 1-(3-(1-imidazolylmethyl)-phenyl)-benzimidazole-5-carboxylate] | IC50 [1]: 12 nM; ED100 [2]: 17 mg/kg; ptz threshold at 30 mg/kg [2]: 120 mg/kg; In vivo binding ED50 [3]: 0.75 mg/kg
 | CCOC(=O)CN1CCN(Cc2cccc(-n3cnc4cc(-c5ccoc5)ccc43)c2)CC1 [Compound 7f, 5-(3-Furanyl)-1-(3-(1-ethoxycarbonylmethyl-4-piperazinylmethyl)-phenyl)-benzimidazole] | IC50 [1]: 0.6 nM; ED100 [2]: 2.7 mg/kg; ptz threshold at 30 mg/kg [2]: 120 mg/kg; In vivo binding ED50 [3]: 0.17 mg/kg

Structure (SMILES) | melting point | further results
CCOC(=O)CN1CCN(c2cccc(-n3cnc4cc(C(=O)OCCOC)ccc43)c2)CC1 (as salt: HCl) [Compound 1b, 2-Methoxyethyl 1-(3-(4-(ethoxy-carbonyl-methyl)-1-piperazinyl)-phenyl)-benzimidazole-5-carboxylate] | 161 to 163 °C | 
CC(=O)N1CCN(CCOC(=O)c2cccc(-n3cnc4cc(-c5ccoc5)ccc43)c2)CC1 (as salt: HCl) [Compound 7j, 2-(1-Acetyl-4-piperazinyl)-ethyl 3-(5-(3-furanyl)-1-benzimidazolyl)-benzoate] | 167 to 168 °C | 
COC(=O)c1cn(-c2cccc(-n3cnc4cc(-c5ccoc5)ccc43)c2)cn1 [Compound 7c, 5-(3-Furanyl)-1-(3-(4-methoxycarbonyl-1-imidazolyl)-phenyl)-benzimidazole] | 221 to 223 °C | IC50 [1]: 0.7 nM; ED100 [2]: 20 mg/kg; ptz threshold at 30 mg/kg [2]: 110 mg/kg; In vivo binding ED50 [3]: 0.43 mg/kg
